From US9156872B2, “2′-azido substituted nucleoside derivatives and methods of use thereof for the treatment of viral diseases” (priority 2011, dated 2015)
pEC50: −log10 of the molar value.

Test system: HCV replicon cells
Assay: Cell-based HCV replicon assay (replicon RNA by Taqman real time PCR)
Conditions: HCV replicon 1b, cells harvested on day 3; read-out: 1b EC50

Work on `CC(C)OP1(=O)OC[C@H]2O[C@@H](n3ccc(=O)[nH]c3=O)[C@](C)(N=[N+]=[N-])[C@@H]2O1` (stereo partly drawn) [Compound 44] yielded a pEC50 of less than 4.00.

Same assay, conditions: Hepatitis C virus, 72 h, HCV replicon 1b, cells harvested on day 3; read-out: 1b EC50

`C[C@@]1(N=[N+]=[N-])[C@H](O)[C@@H](CO)O[C@H]1n1cnc2c(=O)[nH]c(N)nc21` [Compound 17] and `COc1nc(N)nc2c1ncn2[C@@H]1O[C@H](CO)[C@@H](O)[C@@]1(C)N=[N+]=[N-]` [Compound 51] cannot be ordered by pEC50: less than 4.00 for the first, less than 4.00 for the second.

`CC(C)OP1(=O)OC[C@H]2O[C@@H](n3ccc(N)nc3=O)[C@](C)(N=[N+]=[N-])[C@@H]2O1` (stereo partly drawn) [Compound 19] and `CCCOP1(=O)OC[C@H]2O[C@@H](n3ccc(N)nc3=O)[C@](C)(N=[N+]=[N-])[C@@H]2O1` (stereo partly drawn) [Compound 33] cannot be ordered by pEC50: less than 4.00 for the first, less than 4.00 for the second.

First: CCOc1nc(N)nc2c1ncn2[C@@H]1O[C@@H]2COP(=O)(OC(C)C)O[C@H]2[C@@]1(C)N=[N+]=[N-] (stereo partly drawn) [Compound 23]
Second: CCCOP1(=O)OC[C@H]2O[C@@H](n3cnc4c(OCC)nc(N)nc43)[C@](C)(N=[N+]=[N-])[C@@H]2O1 (stereo partly drawn) [Compound 24]
The pEC50 of the first is higher: 4.16 for the first, less than 4.00 for the second.

Compared with `CC(C)OP1(=O)OC[C@H]2O[C@@H](n3ccc(=O)[nH]c3=O)[C@](C)(N=[N+]=[N-])[C@@H]2O1` (stereo partly drawn) [Compound 43], `C[C@@]1(N=[N+]=[N-])[C@@H]2OP(=O)(OC3CCC3)OC[C@H]2O[C@H]1n1ccc(=O)[nH]c1=O` (stereo partly drawn) [Compound 83] is higher in pEC50: less than 4.00 for the first, 4.20 for the second.

`CCOc1nc(N)nc2c1ncn2[C@@H]1O[C@@H]2COP(=O)(OC3CCCC3)O[C@H]2[C@@]1(C)N=[N+]=[N-]` (stereo partly drawn) [Compound 73] was tested, and the pEC50 was 6.15.

Same assay, conditions: Hepatitis C virus, 72 h, read-out: 1b EC50

Compared with `COP1(=O)OC[C@H]2O[C@@H](n3ccc(=O)[nH]c3=O)[C@](C)(N=[N+]=[N-])[C@@H]2O1` (stereo partly drawn) [Compound 18], `C[C@@]1(N=[N+]=[N-])[C@@H]2OP(=O)(Oc3ccccc3)OC[C@H]2O[C@H]1n1ccc(N)nc1=O` (stereo partly drawn) [Compound 65] is higher in pEC50: less than 4.00 for the first, 4.25 for the second. The second is the more potent here.

Going from `CCOc1nc(N)nc2c1ncn2[C@@H]1O[C@H](COP(=O)(N[C@@H](C)C(=O)OC(C)C)Oc2ccccc2)[C@@H](O)[C@@]1(C)N=[N+]=[N-]` (stereo partly drawn) [Compound 20] to `CCOc1nc(N)nc2c1ncn2[C@@H]1O[C@H](COP(=O)(N[C@@H](C)C(=O)OC(C)C)Oc2ccccc2Cl)[C@@H](O)[C@@]1(C)N=[N+]=[N-]` (stereo partly drawn) [Compound 59], the pEC50 falls from 6.00 to 5.00 (1.00 log units).

`CC(C)OC(=O)[C@H](C)NP(=O)(OC[C@H]1O[C@@H](n2ccc(N)nc2=O)[C@](C)(N=[N+]=[N-])[C@@H]1O)Oc1ccccc1` (stereo partly drawn) [Compound 22] and `CC(C)COC(=O)[C@H](C)NP(=O)(OC[C@H]1O[C@@H](n2ccc(N)nc2=O)[C@](C)(N=[N+]=[N-])[C@@H]1O)Oc1ccccc1` (stereo partly drawn) [Compound 48] are the same in pEC50: 5.51 for the first, 5.51 for the second.

Compared with `CCOc1nc(N)nc2c1ncn2[C@@H]1O[C@@H]2COP(=O)(OC)O[C@H]2[C@@]1(C)N=[N+]=[N-]` (stereo partly drawn) [Compound 25], `CCOc1nc(N)nc2c1ncn2[C@@H]1O[C@H](COP(=O)(N[C@@H](C)C(=O)OC)Oc2ccc(F)cc2)[C@@H](O)[C@@]1(C)N=[N+]=[N-]` (stereo partly drawn) [Compound 35] is 0.91 log units higher in pEC50: 4.89 for the first, 5.80 for the second.

Compared with `CCCCOC(=O)[C@H](C)NP(=O)(OC[C@H]1O[C@@H](n2ccc(=O)[nH]c2=O)[C@](C)(N=[N+]=[N-])[C@@H]1O)Oc1ccccc1` (stereo partly drawn) [Compound 26], `CCCOC(=O)[C@H](C)NP(=O)(OC[C@H]1O[C@@H](n2ccc(=O)[nH]c2=O)[C@](C)(N=[N+]=[N-])[C@@H]1O)Oc1ccccc1` (stereo partly drawn) [Compound 28] is 0.58 log units lower in pEC50: 6.22 for the first, 5.64 for the second. The first is the more potent here.

First: CCCCOC(=O)[C@H](C)NP(=O)(OC[C@H]1O[C@@H](n2cnc3c(OCC)nc(N)nc32)[C@](C)(N=[N+]=[N-])[C@@H]1O)Oc1ccccc1 (stereo partly drawn) [Compound 27]
Second: CCCOC(=O)[C@H](C)NP(=O)(OC[C@H]1O[C@@H](n2cnc3c(OCC)nc(N)nc32)[C@](C)(N=[N+]=[N-])[C@@H]1O)Oc1ccccc1 (stereo partly drawn) [Compound 29]
The pEC50 of the first is 0.70 log units higher: 7.00 for the first, 6.30 for the second. The first is the more potent here.

`CCCOC(=O)[C@H](C)NP(=O)(OC[C@H]1O[C@@H](n2ccc(N)nc2=O)[C@](C)(N=[N+]=[N-])[C@@H]1O)Oc1ccccc1` (stereo partly drawn) [Compound 30] and `CCCCOC(=O)[C@H](C)NP(=O)(OC[C@H]1O[C@@H](n2ccc(N)nc2=O)[C@](C)(N=[N+]=[N-])[C@@H]1O)Oc1ccccc1` (stereo partly drawn) [Compound 31] are within 0.2 log units of each other in pEC50: 5.48 for the first, 5.31 for the second.

Compared with `COC(=O)[C@H](C)NP(=O)(OC[C@H]1O[C@@H](n2ccc(N)nc2=O)[C@](C)(N=[N+]=[N-])[C@@H]1O)Oc1ccc(F)cc1` (stereo partly drawn) [Compound 36], `COC(=O)[C@H](C)NP(=O)(OC[C@H]1O[C@@H](n2ccc(N)nc2=O)[C@](C)(N=[N+]=[N-])[C@@H]1O)Oc1cccc2ccccc12` (stereo partly drawn) [Compound 47] is 2.00 log units higher in pEC50: 4.40 for the first, 6.40 for the second.

First: CC(C)OC(=O)[C@H](C)NP(=O)(OC[C@H]1O[C@@H](n2ccc(=O)[nH]c2=O)[C@](C)(N=[N+]=[N-])[C@@H]1O)Oc1ccccc1Cl (stereo partly drawn) [Compound 39]
Second: COC(=O)[C@H](C)NP(=O)(OC[C@H]1O[C@@H](n2ccc(=O)[nH]c2=O)[C@](C)(N=[N+]=[N-])[C@@H]1O)Oc1ccccc1Cl (stereo partly drawn) [Compound 40]
The pEC50 of the first is 1.09 log units lower: 4.31 for the first, 5.40 for the second. The second is the more potent here.

Compared with `COC(=O)[C@H](C)NP(=O)(OC[C@H]1O[C@@H](n2ccc(=O)[nH]c2=O)[C@](C)(N=[N+]=[N-])[C@@H]1O)Oc1cccc2ccccc12` (stereo partly drawn) [Compound 41], `COC(=O)[C@H](C)NP(=O)(OC[C@H]1O[C@@H](n2ccc(=O)[nH]c2=O)[C@](C)(N=[N+]=[N-])[C@@H]1O)Oc1ccc(Cl)cc1` (stereo partly drawn) [Compound 50] is 3.12 log units lower in pEC50: 8.52 for the first, 5.40 for the second.

Compared with `CC(C)OC(=O)[C@H](C)NP(=O)(OC[C@H]1O[C@@H](n2ccc(=O)[nH]c2=O)[C@](C)(N=[N+]=[N-])[C@@H]1O)Oc1ccc2c(c1)OCO2` (stereo partly drawn) [Compound 42], `CCOc1nc(N)nc2c1ncn2[C@@H]1O[C@H](COP(=O)(N[C@@H](C)C(=O)OC(C)C)Oc2ccc3c(c2)OCO3)[C@@H](O)[C@@]1(C)N=[N+]=[N-]` (stereo partly drawn) [Compound 72] is 1.50 log units higher in pEC50: 4.60 for the first, 6.10 for the second. The second is the more potent here.

`C[C@@H](NP(=O)(OC[C@H]1O[C@@H](n2ccc(=O)[nH]c2=O)[C@](C)(N=[N+]=[N-])[C@@H]1O)Oc1ccccc1)C(=O)OCc1ccccc1` (stereo partly drawn) [Compound 45] and `CCOC(=O)[C@H](C)NP(=O)(OC[C@H]1O[C@@H](n2ccc(=O)[nH]c2=O)[C@](C)(N=[N+]=[N-])[C@@H]1O)Oc1ccc(Cl)cc1` (stereo partly drawn) [Compound 49] are within 0.2 log units of each other in pEC50: 5.25 for the first, 5.28 for the second.

Compared with `CCCCOC(=O)[C@H](C)NP(=O)(OC[C@H]1O[C@@H](n2cnc3c(OC)nc(N)nc32)[C@](C)(N=[N+]=[N-])[C@@H]1O)Oc1cccc2ccccc12` (stereo partly drawn) [Compound 52], `COC(=O)[C@H](C)NP(=O)(OC[C@H]1O[C@@H](n2cnc3c(OC)nc(N)nc32)[C@](C)(N=[N+]=[N-])[C@@H]1O)Oc1cccc2ccccc12` (stereo partly drawn) [Compound 57] is 0.48 log units higher in pEC50: 5.92 for the first, 6.40 for the second.

`COC(=O)[C@H](C)NP(=O)(OC[C@H]1O[C@@H](n2cnc3c(OC)nc(N)nc32)[C@](C)(N=[N+]=[N-])[C@@H]1O)Oc1ccccc1` (stereo partly drawn) [Compound 53] and `CCCOC(=O)[C@H](C)NP(=O)(OC[C@H]1O[C@@H](n2cnc3c(OC)nc(N)nc32)[C@](C)(N=[N+]=[N-])[C@@H]1O)Oc1ccccc1` (stereo partly drawn) [Compound 78] are within 0.2 log units of each other in pEC50: 6.15 for the first, 5.96 for the second.

Compared with `COc1nc(N)nc2c1ncn2[C@@H]1O[C@H](COP(=O)(N[C@@H](C)C(=O)OCC(C)(C)C)Oc2ccccc2)[C@@H](O)[C@@]1(C)N=[N+]=[N-]` (stereo partly drawn) [Compound 55], `COC(=O)[C@H](C)NP(=O)(OC[C@H]1O[C@@H](n2cnc3c(OC)nc(N)nc32)[C@](C)(N=[N+]=[N-])[C@@H]1O)Oc1ccccc1Cl` (stereo partly drawn) [Compound 77] is 0.26 log units higher in pEC50: 5.96 for the first, 6.22 for the second.

`CCOc1nc(N)nc2c1ncn2[C@@H]1O[C@H](COP(=O)(N[C@@H](C)C(=O)OC)Oc2ccccc2Cl)[C@@H](O)[C@@]1(C)N=[N+]=[N-]` (stereo partly drawn) [Compound 58] and `CCOc1nc(N)nc2c1ncn2[C@@H]1O[C@H](COP(=O)(N[C@@H](C)C(=O)OC)Oc2ccc(Cl)cc2)[C@@H](O)[C@@]1(C)N=[N+]=[N-]` (stereo partly drawn) [Compound 63] are within 0.2 log units of each other in pEC50: 6.30 for the first, 6.40 for the second.

Compared with `CCOc1nc(N)nc2c1ncn2[C@@H]1O[C@H](COP(=O)(N[C@@H](C)C(=O)OC2CCCCC2)Oc2ccc(F)cc2)[C@@H](O)[C@@]1(C)N=[N+]=[N-]` (stereo partly drawn) [Compound 64], `COc1nc(N)nc2c1ncn2[C@@H]1O[C@H](COP(=O)(N[C@@H](C)C(=O)OC2CCCCC2)Oc2ccc(Cl)cc2)[C@@H](O)[C@@]1(C)N=[N+]=[N-]` (stereo partly drawn) [Compound 80] is 0.81 log units lower in pEC50: 6.40 for the first, 5.59 for the second. The first is the more potent here.

Going from `CCOc1nc(N)nc2c1ncn2[C@@H]1O[C@H](COP(=O)(N[C@@H](C)C(=O)OCc2ccccc2)Oc2ccccc2)[C@@H](O)[C@@]1(C)N=[N+]=[N-]` (stereo partly drawn) [Compound 69] to `CCOc1nc(N)nc2c1ncn2[C@@H]1O[C@H](COP(=O)(N[C@@H](C)C(=O)OC)Oc2cccc3ccccc23)[C@@H](O)[C@@]1(C)N=[N+]=[N-]` (stereo partly drawn) [Compound 70], the pEC50 rises from 5.66 to 6.40 (0.74 log units).

First: CCOC(=O)[C@H](C)NP(=O)(OC[C@H]1O[C@@H](n2cnc3c(OCC)nc(N)nc32)[C@](C)(N=[N+]=[N-])[C@@H]1O)Oc1ccc(Cl)cc1 (stereo partly drawn) [Compound 71]
Second: COC(=O)[C@H](C)NP(=O)(OC[C@H]1O[C@@H](n2cnc3c(OC)nc(N)nc32)[C@](C)(N=[N+]=[N-])[C@@H]1O)Oc1ccc(Cl)cc1 (stereo partly drawn) [Compound 79]
The pEC50 of the first is 0.48 log units lower: 6.22 for the first, 6.70 for the second. The second is the more potent here.

Same assay, conditions: read-out: 1b EC50

Going from `CC(C)COC(=O)[C@H](C)NP(=O)(OC[C@H]1O[C@@H](n2ccc(=O)[nH]c2=O)[C@](C)(N=[N+]=[N-])[C@@H]1O)Oc1ccccc1` (stereo partly drawn) [Compound 37] to `CCOc1nc(N)nc2c1ncn2[C@@H]1O[C@H](COP(=O)(N[C@@H](C)C(=O)OCC(C)C)Oc2ccccc2)[C@@H](O)[C@@]1(C)N=[N+]=[N-]` (stereo partly drawn) [Compound 60], the pEC50 rises from 5.46 to 5.70 (0.24 log units). The second is the more potent here.

Going from `CC(C)COC(=O)[C@H](C)NP(=O)(OC[C@H]1O[C@@H](n2ccc(=O)[nH]c2=O)[C@](C)(N=[N+]=[N-])[C@@H]1O)Oc1ccccc1` (stereo partly drawn) [Compound 38] to `CCOc1nc(N)nc2c1ncn2[C@@H]1O[C@H](COP(=O)(N[C@@H](C)C(=O)OCC(C)C)Oc2ccccc2)[C@@H](O)[C@@]1(C)N=[N+]=[N-]` (stereo partly drawn) [Compound 61], the pEC50 falls from 6.52 to 6.10 (0.42 log units).

First: CCOC(=O)[C@H](C)NP(=O)(OC[C@H]1O[C@@H](n2cnc3c(OC)nc(N)nc32)[C@](C)(N=[N+]=[N-])[C@@H]1O)Oc1ccccc1 (stereo partly drawn) [Compound 54]
Second: CCOc1nc(N)nc2c1ncn2[C@@H]1O[C@H](COP(=O)(N[C@@H](C)C(=O)OCC(C)C)Oc2ccccc2)[C@@H](O)[C@@]1(C)N=[N+]=[N-] (stereo partly drawn) [Compound 62]
The pEC50 of the first is 0.42 log units higher: 6.52 for the first, 6.10 for the second.
